Assays:
Wistar rats = assay: Oral glucose challenge (2 g/kg) in fasted rats, serum glucose by enzymatic method (Mutaratase-GOD); type: in vivo, rat; conditions: male Wistar rats; for Blood Glucose at T0: fasted, agent given one hour before, sample immediately prior to oral glucose loading; for Blood Glucose at T90: 90 minutes post oral glucose challenge 2 g/kg; for Change in Blood Glucose: T0 to T90 after oral glucose 2 g/kg
Description: Groups of 5 male Wistar rats weighing 200+/−10 g were employed. Fasted animals were injected with agent or placebo (GLP-1, 1 nmole/kg, iv) and/or gavaged with agent or placebo (tissue kallikrein (SIGMA), 200 U) one hour prior to glucose challenge. A blood sample was taken immediately prior oral glucose loading (2 g/kg). At 90 minutes post glucose challenge a second blood sample was taken. The serum glucose samples were assessed by enzymatic method (Mutaratase-GOD) for the time points.

Sprague-Dawley rats = assay: Euglycemic hyperinsulinemic clamp in rats made insulin resistant by a high-sucrose diet; type: in vivo, rat; conditions: up to one unit by bolus IV injection, last hour of 2 h clamp, versus saline controls
Description: A litter of 14 Sprague-Dawley rats, (from Charles River, St-Constant, Canada), obtained at 5 weeks old are accommodated individually in cages. The animals are acclimatized to a temperature of 22° C.+/−1° C. and constant humidity and airflow conditions. The animals are fed a high sucrose diet. During the 2 weeks prior to experimentation, the animals have free access to tap water, are provided their controlled diet and their body weight and food intake are recorded every other day. The high-sucrose diet consists of 62.5% (wt/wt) sucrose, 6.5% corn oil, 20% protein (casein, purified high nitrogen), 0.3% dl-methionine, 1% vitamin mix, 4.7% mineral mix and 5% cellulose. The energy density of the high-sucrose diet is 16.81 kJ/g. This high-sucrose diet induces insulin resistance. […]
Analytical Methods—The rats are anesthetized and venous blood samples are taken for plasma glucose and insulin assessment and rapidly centrifuged. […] Resting heart rate, blood pressure and regional blood flows are recorded over 30 minutes in quiet, unrestrained and unsedated rats.
Euglycemic Clamp Methodology—All rats receive an infusion of regular porcine insulin at a rate of 16 mU·kg^−1·min^−1 for 2 hours. […] The Euglycemic hyperinsulinemic clamp is performed over 2 hours, while blood pressure, heart rate, and regional blood flow is measured continuously with blood samples. […]

| Substance | Blood Glucose at T0 (Wistar rats) | Blood Glucose at T90 (Wistar rats) | Change in Blood Glucose (Wistar rats) | Area under the curve of glucose required to maintain euglycemia (index of insulin sensitivity) (Sprague-Dawley rats) |
| --- | --- | --- | --- | --- |
| glucagon like peptide 1 [GLP-1] | 110 mg/dL | 216 mg/dL | 116.1 ± 18.1 mg/dL |  |
| kallikrein |  |  |  | greater area under the curve |
| tissue kallikrein [tissue kallkrein] | 109 mg/dL | 229 mg/dL | 120.2 ± 20.7 mg/dL |  |
